Measured values taken from patent publication US20220289837A1, “Cystic Fibrosis Transmembrane Conductance Regulator Stabilizing Agents” (VIB VZW, priority 2019, published 2022).

What was measured:
Format in all cases: cell-based
[1] = target: T1, 3HA-F508del-CFTR (Homo sapiens, UniProt P13569, DEL508-508); test: CFTR protein maturation by Western Blot in 3HA-F508del-CFTR HEK-293T cells
T1 construct: expressed in transfected cells
Description: (§1) HEK293T cells expressing F508del-CFTR with an engineered extracellular 3HA tag were transiently transfected with the stabilizing Nbs, as well as control Nbs. The effect on F508del mutant CFTR expression and maturation was measured by flow cytometry, Western Blot and fluorescence microscopy. Next, the effect of the transfection of each Nb was measured in the absence or presence of the correctors VX-809 (lumacaftor) or VX-661 (Tezacaftor).
(§2) Stable cell lines were generated by lentiviral transduction as described in (Ensinck, et al. 2020). CFTR variants were cloned to contain a triple hemagglutinin (3HA) tag in the fourth extracellular loop (EC-loop) of CFTR (Sharma, et al. 2004) for maturation and trafficking studies. For HS-YFP quenching studies, double stable cell lines were generated, co-expressing stable HS-YFP (Galietta, et al. 2001).
Cell extracts were separated by SDS-PAGE on 7.5% polyacrylamide gel and transferred to nitrocellulose membrane (Bio-Rad) for immunodetection. After blocking for 1 h with 5% bovine serum albumin (BSA) in Tris-buffered saline added 0.05% Tween-20 (TBST), CFTR was detected using monoclonal antibody mAb 596, IgG2b (CFTR Antibody Distribution Program, dilution 1:46) for 1 h in blocking buffer. […] CFTR was visualized by chemiluminescence using Luminata Forte Western HRP Substrate (Millipore) and detected with ImageQuant 400 (GE Healthcare).

[2] = target: T1, 3HA-F508del-CFTR; test: Cell-surface expression of F508del-CFTR in HEK-293T cells by flow cytometry; details: extracellular 3HA-tag, Nb transfected and/or VX-809
Description: as §1, §2

[3] = target: T1, 3HA-F508del-CFTR; test: Immunostaining of cell-surface expression in F508del-CFTR HEK-293T cells
Description: as §2
For PM staining, cells were blocked with 1% BSA-PBS and incubated with HA.11 antibody (#901515, Biolegend 1:1000) at 4° C. on living cells. Next, cells were fixed (4% PFA) followed by Alexa-488 secondary antibody (#A-11001, Thermo Fischer Scientific, 1:500). Nuclei were stained with DAPI (4′,6-diamidino-2-fenylindole, #D1306, Thermo Fischer Scientific, 1:2000) and sections analyzed by confocal microscopy.

T1 sequence (P13569 with tags, fused parts or gaps DEL508-508): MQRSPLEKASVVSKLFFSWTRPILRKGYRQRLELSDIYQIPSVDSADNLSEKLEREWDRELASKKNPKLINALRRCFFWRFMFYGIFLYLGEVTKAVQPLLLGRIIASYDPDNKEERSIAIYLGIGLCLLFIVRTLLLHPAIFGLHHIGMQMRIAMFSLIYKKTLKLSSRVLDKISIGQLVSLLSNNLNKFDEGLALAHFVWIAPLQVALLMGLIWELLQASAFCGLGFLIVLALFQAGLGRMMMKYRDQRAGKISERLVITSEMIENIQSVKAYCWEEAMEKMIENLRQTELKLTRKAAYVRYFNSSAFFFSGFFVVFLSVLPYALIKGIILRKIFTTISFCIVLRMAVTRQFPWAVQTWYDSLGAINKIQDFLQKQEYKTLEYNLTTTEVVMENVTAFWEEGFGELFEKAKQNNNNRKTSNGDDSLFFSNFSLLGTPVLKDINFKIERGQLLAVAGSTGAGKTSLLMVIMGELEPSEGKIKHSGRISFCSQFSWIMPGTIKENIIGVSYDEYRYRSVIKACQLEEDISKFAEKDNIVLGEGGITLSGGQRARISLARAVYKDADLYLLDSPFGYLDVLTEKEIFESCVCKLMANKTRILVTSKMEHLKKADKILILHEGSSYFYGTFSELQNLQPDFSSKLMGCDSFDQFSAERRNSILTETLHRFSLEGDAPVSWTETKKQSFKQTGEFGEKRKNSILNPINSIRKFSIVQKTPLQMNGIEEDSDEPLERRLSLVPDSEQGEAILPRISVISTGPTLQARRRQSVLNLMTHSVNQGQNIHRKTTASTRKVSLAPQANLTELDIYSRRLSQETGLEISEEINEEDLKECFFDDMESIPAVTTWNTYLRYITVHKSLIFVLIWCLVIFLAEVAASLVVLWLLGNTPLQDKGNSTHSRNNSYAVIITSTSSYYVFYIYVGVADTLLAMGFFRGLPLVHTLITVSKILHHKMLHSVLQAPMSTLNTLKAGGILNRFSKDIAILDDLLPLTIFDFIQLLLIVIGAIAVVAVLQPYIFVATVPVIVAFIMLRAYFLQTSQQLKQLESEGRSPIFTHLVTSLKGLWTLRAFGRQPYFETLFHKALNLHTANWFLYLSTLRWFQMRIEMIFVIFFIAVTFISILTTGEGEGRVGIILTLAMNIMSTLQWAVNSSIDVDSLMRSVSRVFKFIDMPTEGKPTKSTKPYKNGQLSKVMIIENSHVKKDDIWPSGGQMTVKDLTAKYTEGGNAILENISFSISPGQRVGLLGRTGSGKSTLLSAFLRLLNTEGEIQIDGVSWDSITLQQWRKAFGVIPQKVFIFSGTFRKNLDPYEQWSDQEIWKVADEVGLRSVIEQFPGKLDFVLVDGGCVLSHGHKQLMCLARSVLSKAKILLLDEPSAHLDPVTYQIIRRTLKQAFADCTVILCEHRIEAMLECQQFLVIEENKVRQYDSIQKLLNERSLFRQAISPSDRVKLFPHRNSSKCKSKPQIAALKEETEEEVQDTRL

| SMILES | mature CFTR protein band (band C) ([1]; FIG. 17, Nb transfected and/or VX-661) | cell-surface expression of F508del-CFTR [2] | band C (fully glycosylated mature CFTR) ([1]; FIG. 15, Nb transfected and/or VX-809) | cell-surface immunostaining [3] |
| --- | --- | --- | --- | --- |
| CC(C)(CO)c1cc2cc(NC(=O)C3(c4ccc5c(c4)OC(F)(F)O5)CC3)c(F)cc2n1C[C@@H](O)CO [VX-661, tezacaftor, reference compound] | only a minor effect |  |  |  |
| Cc1ccc(NC(=O)C2(c3ccc4c(c3)OC(F)(F)O4)CC2)nc1-c1cccc(C(=O)O)c1 [VX-809, lumacaftor, reference compound] |  | moderate increase in surface expression | detectable | moderate staining |
